Experimental data taken from patent US20250108038A1 (priority 2023, published 2025).
Entries after “also recorded” stand apart in the source; their conditions may differ.

How the values were obtained:
rat gut microbiota = assay: Stability in rat gut microbiota; details: rat fecal matter, 37° C., 0-120 min
Procedure: FIG. 7A. […] Gut microbiota from rat and human sources were extracted and purified in PBS at pH 6.0 or 7.4. A stock solution of 10 mM was prepared and a 10 μL aliquot was added to extracted microorganisms at 0 min. […] Values represent mean+SEM of n=3 separate experiments.
FIG. 7B. […] Gut microbiota from rat and human sources were extracted and purified in PBS at pH 6.0 or 7.4. A stock solution of 10 mM was prepared and a 10 μL aliquot was added to extracted microorganisms at 0 min. […] Values represent mean+SEM of n=3 separate experiments.
Rat fecal material was obtained and weighed. One capsule of the raw probiotics was crushed and weighed prior to use. The weighed samples were then solubilized in PBS at pH 6.0 and 7.4 to extract microorganisms. The samples were centrifuged at 18,000×g for 10 min. to remove particulates and the supernatant was used to evaluate test article stability. An aliquot (50 μL) of the test article stock solutions were added to the fecal extract (final concentration 0.5 mM) and allowed to incubate at 37° C. […] The collected sample was quenched in acetonitrile/0.1% formic acid mixture.

OAT1 = target: T1, OAT1 (Homo sapiens, UniProt Q4U2R8); assay: Uptake transporter inhibition assay, OAT1 (tenofovir); details: for Maximum % inhibition: OAT1, HEK293 cells, tenofovir (5 μM), NIO: no inhibition observed
T1 sequence (Q4U2R8 1-563): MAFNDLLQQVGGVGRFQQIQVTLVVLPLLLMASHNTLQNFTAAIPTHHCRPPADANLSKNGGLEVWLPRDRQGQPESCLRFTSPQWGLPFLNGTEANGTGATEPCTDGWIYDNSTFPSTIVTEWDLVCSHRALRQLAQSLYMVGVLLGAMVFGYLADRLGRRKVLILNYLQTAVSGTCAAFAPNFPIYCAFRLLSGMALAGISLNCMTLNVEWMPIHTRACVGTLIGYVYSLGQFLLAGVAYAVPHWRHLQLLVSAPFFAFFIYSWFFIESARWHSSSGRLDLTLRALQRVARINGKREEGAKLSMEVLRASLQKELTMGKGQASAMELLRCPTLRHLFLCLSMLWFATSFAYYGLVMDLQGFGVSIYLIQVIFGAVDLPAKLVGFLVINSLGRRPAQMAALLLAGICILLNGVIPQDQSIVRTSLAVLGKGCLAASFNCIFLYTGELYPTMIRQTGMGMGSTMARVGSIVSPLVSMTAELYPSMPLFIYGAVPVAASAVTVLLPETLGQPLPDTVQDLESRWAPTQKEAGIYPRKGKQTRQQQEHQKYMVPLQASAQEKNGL
Procedure: Uptake experiments were performed using HEK293 cells stably expressing the respective uptake transporters. The assays were conducted according to the actual SOLVO uptake transporter assay protocols (PR-ASY-UPT-General Protocol for Uptake Transporter Inhibition Assays).
Cells were cultured at 37° C. in a humidified atmosphere containing 5% CO2 and were plated onto standard 96-well tissue culture plates.
Before the experiment, the medium was removed, and the cells were washed twice with 100 μL of pre-warmed (37° C.) assay buffer listed in Table 15. The cells were pre-incubated at 37° C. for 30 minutes in assay buffer containing the test article at appropriate concentrations (Table 16), appropriate solvents for solvent controls and the reference inhibitor for reference inhibitor wells. After the pre-incubation step solutions were removed. Uptake experiments were performed at 37° C. in 50 μL of assay buffer containing the probe substrate and the test article or solvent and controls.
After the experiment, cells were washed twice with 100 μL of appropriate cold buffer and lysed with 150 μL scintillation cocktail. Radiolabeled probe substrate transport was determined by liquid scintillation counting.
Uptake of the probe substrate in control cells provided background activity values for all data points.

[1] = 10.00 μM nominal, 6.60 μM NSB corrected
[2] = 100.00 μM nominal, 77.00 μM NSB corrected

COCCOC1(c2ccc(Cl)cc2)c2ccccc2C2=NCCN21 (stereo not shown) [Compound I-4]
% parent compound remaining (rat gut microbiota; pH 6, 0.5 mM): ≥ 100%
% parent compound remaining (rat gut microbiota; pH 7.4, 0.5 mM): ≥ 100%

OC1(c2ccc(Cl)cc2)c2ccccc2C2=NCCN21 (stereo not shown) [Compound A, 5-(4-chlorophenyl)-2,3-dihydroimidazo[1,2-b]isoindol-5-ol, reference compound]
Relative transporter specific accumulation (OAT1; 3.00 μM nominal): 99.68 ± 2.39 % of control
Transporter specific accumulation (OAT1; 3.00 μM nominal): 2,392.67 ± 13.09 cpm
Relative transporter specific accumulation (OAT1; 30.00 μM nominal): 88.39 ± 4.23 % of control
Transporter specific accumulation (OAT1; 30.00 μM nominal): 2,121.67 ± 88.79 cpm
Maximum % inhibition (OAT1): NIO
inhibition at 3 μM (OAT1; human): 0%
inhibition at 30 μM (OAT1; human): 12%
maximum inhibition of OAT1-mediated tenofovir accumulation (OAT1; up to 100 μM (Compound A up to 30 μM)): did not inhibit; also recorded: not an in vitro inhibitor

Clc1ccc(C2(OCC3OCCO3)c3ccccc3C3=NCCN32)cc1 (stereo not shown) [Compound I-19]
% parent compound remaining (rat gut microbiota; pH 6, 0.5 mM): at or above 100% for all time points except 120 min
% parent compound remaining (rat gut microbiota; pH 7.4, 0.5 mM): time-dependent decrease in the amount of parent compound present; also recorded: unstable
Relative inhibition (OAT1; [1]): 11%
Relative transporter specific accumulation (OAT1; [1]): 89.39 ± 1.16 % of control
Transporter specific accumulation (OAT1; [1]): 5,462.33 ± 30.98 cpm
Relative inhibition (OAT1; [2]): 33%
Relative transporter specific accumulation (OAT1; [2]): 66.61 ± 1.15 % of control
Transporter specific accumulation (OAT1; [2]): 4,070.33 ± 51.74 cpm
Maximum % inhibition (OAT1): 33%
